# According to patent publication US8912121B2, “Herbicidal compositions comprising 4-amino-3-chloro-5-fluoro-6-(4-chloro-2-fluoro-3-methoxyphenyl)pyridine-2-carboxylic acid or a derivative thereof and certain PS II inhibitors” (Dow Agrosciences LLC, priority 2012, dated 2014):
# How the values were obtained:
# [1] = tested on: CHEAL (Chenopodium album, common lambsquarters); test: Postemergence herbicidal activity of mixtures in cereal crops, greenhouse; type: in vivo, Chenopodium album L.
# Method: (§1) Seeds of the desired test plant species were planted in Sun Gro MetroMix® 306 planting mixture, which typically has a pH of 6.0 to 6.8 and an organic matter content of about 30 percent, in plastic pots with a surface area of 103.2 square centimeters (cm^2). When required to ensure good germination and healthy plants, a fungicide treatment and/or other chemical or physical treatment was applied. The plants were grown for 7-36 days in a greenhouse with an approximate 14 hour photoperiod which was maintained at about 18° C. during the day and about 17° C. during the night. Nutrients and water were added on a regular basis and supplemental lighting was provided with overhead metal halide 1000-Watt lamps as necessary. The plants were employed for testing when they reached the second or third true leaf stage.
# (§2) Treatments consisted of the benzyl ester of 4-amino-3-chloro-5-fluoro-6-(4-chloro-2-fluoro-3-methoxy-phenyl)pyridine-2-carboxylic acid (Compound A), formulated as an SC, a second cereal herbicide alone and then both in combination.
# (§3) Other herbicidal components were applied on an active ingredient basis and included PSII-inhibiting herbicides.
# (§4) Measured aliquots of benzyl ester of 4-amino-3-chloro-5-fluoro-6-(4-chloro-2-fluoro-3-methoxy-phenyl)pyridine-2-carboxylic acid (Compound A) were placed in 25 milliliter (mL) glass vials and diluted in a volume of 1.25% (v/v) Agri-Dex® crop oil concentrate to obtain stock solutions. Compound requirements are based upon a 12 mL application volume at a rate of 187 liters per hectare (L/ha). Spray solutions of the second cereal herbicide and experimental compound mixtures were prepared by adding the stock solutions to the appropriate amount of dilution solution to form 12 mL spray solution with active ingredients in two- and three-way combinations. Formulated compounds were applied to the plant material with an overhead Mandel track sprayer equipped with an 8002E nozzle calibrated to deliver 187 L/ha over an application area of 0.503 square meters (m^2) at a spray height of 18 inches (46 cm) above average plant canopy. Control plants were sprayed in the same manner with the solvent blank.
# (§5) The treated plants and control plants were placed in a greenhouse as described above and watered by sub-irrigation to prevent wash-off of the test compounds. After 20-22 days, the condition of the test plants as compared with that of the control plants was determined visually and scored on a scale of 0 to 100 percent where 0 corresponds to no injury and 100 corresponds to complete kill.
# Colby's equation was used to determine the herbicidal effects expected from the mixtures (Colby, S. R. 1967. Calculation of the synergistic and antagonistic response of herbicide combinations. Weeds 15:20-22). […]
# [2] = tested on: SASKR (Salsola tragus, Russian thistle); test: as above; type: in vivo, Salsola tragus L.
# Method: as §1, §2, §3, §4, §5
# Colby's equation was used to determine the herbicidal effects expected from the mixtures (Colby, S. R. 1967. Calculation of the synergistic and antagonistic response of herbicide combinations. Weeds 15:20-22).
# The following equation was used to calculate the expected activity of mixtures containing two active ingredients, A and B: Expected=A+B−(A×B/100)
# [3] = tested on: BRAPP (Brachiaria platyphylla, broadleaf signalgrass); test: Pre-emergence soil-applied mixtures, greenhouse; type: in vivo, Brachiaria platyphylla (Groseb.) Nash
# Description: (§6) Seeds or nutlets of the desired test plant species were planted in a soil matrix prepared by mixing a loam soil (32 percent silt, 23 percent clay, and 45 percent sand, with a pH of about 6.5 and an organic matter content of about 1.9 percent) and calcareous grit in an 80 to 20 ratio. The soil matrix was contained in plastic pots with a volume of 1 quart and a surface area of 83.6 square centimeters (cm^2).
# (§7) Treatments consisted of the benzyl ester of 4-amino-3-chloro-5-fluoro-6-(4-chloro-2-fluoro-3-methoxy-phenyl)pyridine-2-carboxylic acid (compound A) formulated as an SC (suspension concentrate) and various herbicidal components alone and in combination. Forms of compound A were applied on an acid equivalent basis.
# (§8) Other herbicidal components were applied on an acid equivalent or active ingredient basis and included the PSII-inhibiting herbicides, atrazine formulated as Atrazine® 90WDG, metribuzin formulated as Metribuzin 75DF, simazine formulated as Princep Caliber 90, tebuthiuron formulated as Spike 80DF, cyanazine (technical grade material), hexazinone (technical grade material), linuron (technical grade material), terbuthylazine (technical grade material), and diuron formulated as Diuron 4L.
# (§9) Treatment requirements were calculated based upon the rates being tested, the concentration of active ingredient or acid equivalent in the formulation, and a 12 mL application volume at a rate of 187 L/ha.
# For treatments comprised of formulated compounds, measured amounts of compounds were placed individually in 25 mL glass vials and diluted in a volume of 1.25% (v/v) Agri-Dex® crop oil concentrate (COC) to obtain 12× stock solutions. […] Application solutions were prepared by adding an appropriate amount of each stock solution (e.g., 1 mL) and diluted to the appropriate final concentrations with the addition of 10 mL of an aqueous mixture of 1.25% (v/v) COC so that the final spray solutions contained 1.25% (v/v) COC.
# For treatments comprised of technical compounds, weighed amounts can be placed individually in 25 mL glass vials and dissolved in a volume of 97:3 (v/v) acetone/DMSO to obtain 12× stock solutions. […] Application solutions can be prepared by adding an appropriate amount of each stock solution (e.g., 1 mL) and diluted to the appropriate final concentrations with the addition of 10 mL of an aqueous mixture of 1.5% (v/v) COC so that the final spray solutions contain 1.25% (v/v) COC. When technical materials are used, the concentrated stock solutions can be added to the spray solutions so that the final acetone and DMSO concentrations of the application solutions are 16.2% and 0.5%, respectively.
# For treatments comprised of formulated and technical compounds, weighed amounts of the technical materials can be placed individually in 25 mL glass vials and dissolved in a volume of 97:3 (v/v) acetone/DMSO to obtain 12× stock solutions, and measured amounts of the formulated compounds can be placed individually in 25 mL glass vials and diluted in a volume of 1.5% (v/v) COC or water to obtain 12× stock solutions. […] Application solutions can be prepared by adding an appropriate amount of each stock solution (e.g., 1 mL) and diluted to the appropriate final concentrations with the addition of an appropriate amount of an aqueous mixture of 1.5% (v/v) COC so that the final spray solutions contain 1.25% (v/v) COC. As required, additional water and/or 97:3 (v/v) acetone/DMSO can be added to individual application solutions so that the final acetone and DMSO concentrations of the application solutions being compared are 8.1% and 0.25%, respectively.
# All stock solutions and applications solutions were visually inspected for compound compatibility prior to application. Spray solutions were applied to the soil with an overhead Mandel track sprayer equipped with a 8002E nozzles calibrated to deliver 187 L/ha over an application area of 0.503 m^2 at a spray height of 18 inches (46 cm) above average pot height. […]
# [4] = tested on: SETVI (Setaria viridis, green foxtail); test: Pre-emergence soil-applied mixtures, greenhouse; type: in vivo, Setaria viridis (L.) Beauv.
# Description: as §6, §7, §8, §9
# For treatments comprised of formulated compounds, measured amounts of compounds were placed individually in 25 mL glass vials and diluted in a volume of 1.25% (v/v) Agri-Dex® crop oil concentrate (COC) to obtain 12× stock solutions. […]
# For treatments comprised of formulated and technical compounds, weighed amounts of the technical materials can be placed individually in 25 mL glass vials and dissolved in a volume of 97:3 (v/v) acetone/DMSO to obtain 12× stock solutions, and measured amounts of the formulated compounds can be placed individually in 25 mL glass vials and diluted in a volume of 1.5% (v/v) COC or water to obtain 12× stock solutions. […]
# [5] = Compound A Benzyl Ester 2.5 g ai/ha
# [6] = Compound A Benzyl Ester 5 g ai/ha
# [7] = Compound A Benzyl Ester 16 g ae/ha
# [8] = Compound A Benzyl Ester 32 g ae/ha
smiles,measurement,setting,value
"COc1c(Cl)ccc(-c2nc(C(=O)OCc3ccccc3)c(Cl)c(N)c2F)c1F [Compound A Benzyl Ester, benzyl ester of 4-amino-3-chloro-5-fluoro-6-(4-chloro-2-fluoro-3-methoxy-phenyl)pyridine-2-carboxylic acid]",Visual Weed Control (%)-21 DAA CHEAL Obs,[1]; [5],50%
same,Visual Weed Control (%)-21 DAA CHEAL Obs,[1]; [6],58%
same,Visual Weed Control (%)-21 DAA SASKR Obs,[2]; [5],15%
same,Visual Weed Control (%)-21 DAA SASKR Obs,[2]; [6],50%
same,Visual Weed Control (%)-21 DAA SASKR Obs,[2]; Compound A Benzyl Ester 10 g ai/ha,67%
same,Visual Weed Control (%) - 27 DAA BRAPP Obs,"[3]; Compound A Benzyl Ester 16 g ae/ha, Table 28",0%
same,Visual Weed Control (%)-28 DAA BRAPP Obs,[3]; [7],0%
same,Visual Weed Control (%) - 27 DAA BRAPP Obs,"[3]; Compound A Benzyl Ester 32 g ae/ha, Table 27",0%
same,Visual Weed Control (%) - 27 DAA BRAPP Obs,"[3]; Compound A Benzyl Ester 32 g ae/ha, Table 28",0%
same,Visual Weed Control (%)-28 DAA BRAPP Obs,[3]; [8],5%
same,Visual Weed Control (%)-29 DAA SETVI Obs,[4]; [7],10%
same,Visual Weed Control (%)-29 DAA SETVI Obs,[4]; [8],10%
